# Measured values from ChEMBL document CHEMBL3580646, “SAR and Structural Analysis of Siderophore-Conjugated Monocarbam Inhibitors of Pseudomonas aeruginosa PBP3” (ACS Med Chem Lett, 2015).
# How the values were obtained:
# [1] = Unbound fraction in human plasma after 16 hrs by LC-MS/MS analysis
# [2] = tested on: Pseudomonas aeruginosa; test: Antibacterial activity against Pseudomonas aeruginosa PAO1 by broth microdilution method; assay type: functional
# [3] = tested on: Pseudomonas aeruginosa; test: Activity of Pseudomonas aeruginosa PBP3 assessed as acylation rate constant
# [4] = Half life of the compound at pH 7.4 at 37 degC; assay type: ADME
# [5] = Clearance in Han Wistar rat at 1 mg/kg, iv; assay type: ADME, organism-based; settings: in vivo
# [6] = Half life in Han Wistar rat at 1 mg/kg, iv; assay type: ADME, organism-based; settings: in vivo
# [7] = Volume of distribution at steady state in Han Wistar rat at 1 mg/kg, iv; assay type: ADME, organism-based; settings: in vivo, read-out: Vdss
# [8] = tested on: Pseudomonas aeruginosa; test: Antibacterial activity against Pseudomonas aeruginosa; assay type: functional
Structure (SMILES),fraction unbound at 16 h [1],MIC [2] [µg/mL],K [3],half-life [4] [h],clearance [5] [mL/min/kg],half-life [6] [h],Vd [7] [L/kg],MIC90 [8] [µg/mL]
C[C@H]1[C@H](NC(=O)/C(=N\OC(C)(C)C(=O)O)c2csc(N)n2)C(=O)N1C(=O)NS(=O)(=O)n1nc(-c2cc(=O)c(O)c[nH]2)n(CCCNS(C)(=O)=O)c1=O,0.08,0.5,3 ×10⁵ /M/s,–,–,–,–,–
C[C@@H](O)[C@H]1C(=O)N2C(C(=O)O)=C(S[C@@H]3CN[C@H](C(=O)N(C)C)C3)[C@H](C)[C@H]12 [MEROPENEM],–,1,4.9 ×10⁴ /M/s,95,–,–,–,–
C[C@H]1[C@H](NC(=O)/C(=N\OC(C)(C)C(=O)O)c2nc(N)sc2Cl)C(=O)N1C(=O)NS(=O)(=O)n1nc(-c2cc(=O)c(O)c[nH]2)n(CCCS(C)(=O)=O)c1=O,0.06,1,3.2 ×10⁵ /M/s,118,–,–,–,–
C[C@H]1[C@H](NC(=O)/C(=N\OC(C)(C)C(=O)O)c2csc(N)n2)C(=O)N1C(=O)NS(=O)(=O)n1nc(-c2cc(=O)c(O)c[nH]2)n(CCNS(C)(=O)=O)c1=O,0.08,0.5,4.1 ×10⁵ /M/s,61,–,–,–,–
C=CC[C@@H]1[C@H](NC(=O)/C(=N\OC(C)(C)C(=O)O)c2csc(N)n2)C(=O)N1C(=O)NS(=O)(=O)n1nc(-c2cc(=O)c(O)c[nH]2)n(CCCS(C)(=O)=O)c1=O,–,8,5.9 ×10⁵ /M/s,126,–,–,–,–
C[C@H]1[C@H](NC(=O)/C(=N\OC(C)(C)C(=O)O)c2csc(N)n2)C(=O)N1C(=O)NS(=O)(=O)n1nc(-c2cc(=O)c(O)c[nH]2)n(CCS(C)(=O)=O)c1=O,0.06,0.13,3.2 ×10⁵ /M/s,86,8.9,2.5,0.23,1
C[C@H]1[C@H](NC(=O)/C(=N\OC(C)(C)C(=O)O)c2csc(N)n2)C(=O)N1C(=O)NS(=O)(=O)n1nc(-c2cc(=O)c(O)c[nH]2)n(CCC2(S(C)(=O)=O)CC2)c1=O,0.04,0.5,4.5 ×10⁵ /M/s,94,–,–,–,–
CCC[C@@H]1[C@H](NC(=O)/C(=N\OC(C)(C)C(=O)O)c2csc(N)n2)C(=O)N1C(=O)NS(=O)(=O)n1nc(-c2cc(=O)c(O)c[nH]2)n(CCCS(C)(=O)=O)c1=O,–,4,7.4 ×10⁵ /M/s,> 150,–,–,–,–
C[C@H]1[C@H](NC(=O)/C(=N\OC(C)(C)C(=O)O)c2csc(N)n2)C(=O)N1C(=O)NS(=O)(=O)n1nc(-c2cc(=O)c(O)c[nH]2)n(CCCS(=O)(=O)c2ccccc2)c1=O,0.03,1,> 4 ×10⁵ /M/s,> 150,–,–,–,–
C[C@H]1[C@H](NC(=O)/C(=N\OC(C)(C)C(=O)O)c2csc(N)n2)C(=O)N1C(=O)NS(=O)(=O)n1nc(-c2cc(=O)c(O)c[nH]2)n(CCS(N)(=O)=O)c1=O,–,< 0.6,> 4 ×10⁵ /M/s,102,–,–,–,–
CC[C@@H]1[C@H](NC(=O)/C(=N\OC(C)(C)C(=O)O)c2csc(N)n2)C(=O)N1C(=O)NS(=O)(=O)n1nc(-c2cc(=O)c(O)c[nH]2)n(CCCS(C)(=O)=O)c1=O,–,1,8.8 ×10⁵ /M/s,94,–,–,–,–
C=C[C@H]1[C@H](NC(=O)/C(=N\OC(C)(C)C(=O)O)c2csc(N)n2)C(=O)N1C(=O)NS(=O)(=O)n1nc(-c2cc(=O)c(O)c[nH]2)n(CCCS(C)(=O)=O)c1=O,–,0.5,2.1 ×10⁵ /M/s,53,11,2,0.18,–
C[C@@H]1[C@H](NC(=O)/C(=N\OC(C)(C)C(=O)O)c2csc(N)n2)C(=O)N1C(=O)NS(=O)(=O)n1nc(-c2cc(=O)c(O)c[nH]2)n(CCCS(C)(=O)=O)c1=O,–,1,1.6 ×10⁵ /M/s,76,–,–,–,–
C[C@H]1[C@H](NC(=O)/C(=N\OC(C)(C)C(=O)O)c2csc(N)n2)C(=O)N1C(=O)NS(=O)(=O)n1nc(-c2cc(=O)c(O)c[nH]2)n(C[C@@H](O)CS(C)(=O)=O)c1=O,0.04,1,5.4 ×10⁵ /M/s,87,–,–,–,–
C[C@H]1[C@H](NC(=O)/C(=N\OC(C)(C)C(=O)O)c2csc(N)n2)C(=O)N1C(=O)NS(=O)(=O)n1nc(-c2cc(=O)c(O)c[nH]2)n(C[C@@H](O)CO)c1=O,0.04,0.25,7.2 ×10⁵ /M/s,117,–,–,–,–
CC(C)(O/N=C(\C(=O)N[C@H]1CN(C(=O)NS(=O)(=O)n2nc(-c3cc(=O)c(O)c[nH]3)n(C[C@@H](O)CO)c2=O)C1=O)c1csc(N)n1)C(=O)O,0.06,0.78,8.1 ×10⁵ /M/s,–,–,–,–,–
C[C@H]1[C@H](NC(=O)/C(=N\OC(C)(C)C(=O)O)c2csc(N)n2)C(=O)N1C(=O)NS(=O)(=O)n1nc(-c2cc(=O)c(O)cn2O)n(CCCS(C)(=O)=O)c1=O,0.12,4,1.5 ×10⁵ /M/s,82,–,–,–,–
C[C@H]1[C@H](NC(=O)/C(=N\OC(C)(C)C(=O)O)c2csc(N)n2)C(=O)N1C(=O)NS(=O)(=O)n1nc(-c2cc(=O)c(O)c[nH]2)n(CCCS(C)(=O)=O)c1=O,0.09,0.25,1.7 ×10⁵ /M/s,93,7.3,3,0.21,–
C[C@H]1[C@H](NC(=O)/C(=N\OC(C)(C)C(=O)O)c2csc(N)n2)C(=O)N1C(=O)NS(=O)(=O)n1nc(-c2cc(=O)c(O)c[nH]2)n(CC2(CS(C)(=O)=O)CC2)c1=O,0.09,0.5,2.5 ×10⁵ /M/s,71,–,–,–,–
C[C@H]1[C@H](NC(=O)/C(=N\OC(C)(C)C(=O)O)c2csc(N)n2)C(=O)N1C(=O)NS(=O)(=O)n1nc(-c2cc(=O)c(O)cn2O)n(CCS(C)(=O)=O)c1=O,0.2,1,2.5 ×10⁵ /M/s,102,–,–,–,–
C[C@H]1[C@H](NC(=O)/C(=N\OC(C)(C)C(=O)O)c2nsc(N)n2)C(=O)N1C(=O)NS(=O)(=O)n1nc(-c2cc(=O)c(O)c[nH]2)n(CCCS(C)(=O)=O)c1=O,0.27,0.25,5 ×10⁵ /M/s,85,9.5,2,0.26,–
C=C[C@@H]1[C@H](NC(=O)/C(=N\OC(C)(C)C(=O)O)c2csc(N)n2)C(=O)N1C(=O)NS(=O)(=O)n1nc(-c2cc(=O)c(O)c[nH]2)n(CCCS(C)(=O)=O)c1=O,–,2,1.9 ×10⁵ /M/s,38,–,–,–,–
Cn1c(-c2cc(=O)c(O)c[nH]2)nn(S(=O)(=O)NC(=O)N2C[C@H](NC(=O)/C(=N\OC(C)(C)C(=O)O)c3csc(N)n3)C2=O)c1=O,0.05,0.78,1.7 ×10⁵ /M/s,–,–,–,–,–
C[C@H]1[C@H](NC(=O)/C(=N\OC(C)(C)C(=O)O)c2csc(N)n2)C(=O)N1C(=O)NS(=O)(=O)n1nc(-c2cc(=O)c(O)c[nH]2)n(CCCCS(C)(=O)=O)c1=O,0.07,0.25,6.2 ×10⁵ /M/s,100,–,–,–,–
CC[C@H]1[C@H](NC(=O)/C(=N\OC(C)(C)C(=O)O)c2csc(N)n2)C(=O)N1C(=O)NS(=O)(=O)n1nc(-c2cc(=O)c(O)c[nH]2)n(CCCS(C)(=O)=O)c1=O,–,0.5,3.6 ×10⁵ /M/s,98,12,2,0.35,–
C[C@H]1[C@H](NC(=O)/C(=N\OC(C)(C)C(=O)O)c2csc(N)n2)C(=O)N1S(=O)(=O)O [AZTREONAM],–,4,–,–,–,–,–,≥ 1020
CC(C)(O/N=C(\C(=O)N[C@@H]1C(=O)N(C(=O)NS(=O)(=O)n2nc(-c3cc(=O)c(O)c[nH]3)n(CCCS(C)(=O)=O)c2=O)C1(C)C)c1csc(N)n1)C(=O)O,–,8,1.1 ×10⁵ /M/s,> 150,–,–,–,–
